We go through one sequence from article PMC5418314, “First-in-human phase I study of SOR-C13, a TRPV6 calcium channel inhibitor, in patients with advanced solid tumors” (Investigational New Drugs, 2017).

By IC50 is commonly meant the midpoint of a concentration-inhibition curve.

For assay [1], the system named is CA 19–9. The assay can be described thus: CA 19–9 tumor biomarker levels in pancreatic cancer patients. In kind it is in vivo, human. The protocol: (§1) Anti-tumor activity was evaluated by radiologic assessment of tumor size according to the New Response Evaluation Criteria in Solid Tumors (RECIST), Revised Guideline Version 1.1 [20] and changes in tumor-specific biomarker levels. The baseline radiologic assessment was performed ≤30 days prior to the first SOR-C13 dose. Tumor response was assessed after two cycles of treatment (between Days 15–21 of Cycle 2). For patients receiving additional cycles, tumor response was assessed after every 2 additional cycles, or earlier at the investigator’s discretion or as required by standard of care at the site.
For pharmacodynamic information changes of the plasma biomarkers ‘cleaved cytokeratin 18’, (ccK18) and TRPV6 mRNA levels, in response to treatment, were evaluated. Blood samples for the assessment of ccK18, TRPV6 mRNA or other tumor-specific biomarkers were collected within 24 h prior to the first infusion of SOR-C13, on Day 1 of Cycle 2, once between Days 15–21 of Cycle 2, during additional cycles, and at the Month 1 follow-up. We set a low basal level of ccK18 as 250 U/L as a cut-off point representing the 95th percentile median of healthy volunteers (Peviva M30 Apoptosense ELISA assay product literature).

The test system of assay [2] is ovarian cancer xenograft. As to the kind of experiment: xenograft model of ovarian cancer, tumor inhibition. In kind it is in vivo.
Assay [3] relates to advanced solid tumors of epithelial origin. The assay can be described thus: Phase I anti-tumor activity (RECIST 1.1). Type of assay: in vivo, human. The protocol:
as §1

The test system of assay [4] is breast cancer xenograft. The assay can be described thus: xenograft model of breast cancer, tumor inhibition. In kind it is in vivo.
In assay [5] the test system is TRPV6. Particulars: read-out: IC50, inhibition of TRPV6; cited from earlier work. The text has this: SOR-C13 is a short segment (13-mer) from the C-terminus of a paralytic peptide soricidin (accession number P0C2P6) discovered in the saliva of the Northern Short-tailed shrew (Blarina brevicauda), abundant in eastern North America. While not paralytic themselves, C-series peptides blocked calcium uptake by ovarian cancer cells in in vitro studies. […] TRPV6 is predominantly found in non-excitable tissues wi ...

Ends that are not written are not given here.

Turning to KEFLHPSKVDLPR [SOR-C13], the “decrease in CA 19–9” value in assay [1] (pancreatic cancer patient treated at 6.25 mg/kg, after cycle 2) is 29%; in assay [1] (pancreatic cancer patient, 6.2 mg/kg, after cycle 4), 55%. In addition, the inhibition of tumors entry in assay [2] and in assay [4] was “effective” each time. The “patients with stable disease after two cycles” value in assay [3] (1.375 mg/kg, 90-min infusion) was “two out of the three patients”. For the same sequence, in assay [3] (12 of 22 evaluable patients, after two cycles, RECIST 1.1), the “patients with stable disease” value turned out to be 54.5%. Besides, the “patients with stable disease after 2 cycles” value in assay [3] (ovarian cancer (OVca) patients) was “two of the four”. The “duration of stable disease” value in assay [3] (pancreatic cancer patient, 2.75 mg/kg, 90-min infusions) was “four cycles”; in assay [3] (pancreatic cancer patient, 6.2 mg/kg, 90-min infusions) it was “over 10 cycles”. Further, the “reduction from baseline in the sum of tumor diameters” value in assay [3] (pancreatic cancer patient, 6.2 mg/kg, 90-min infusions, after 4 cycles) was found to be 27%. Also, the “duration of stable disease (cycles received)” value in assay [3] (patient with adenoid cystic carcinoma of the tongue, 4.13 mg/kg) is 18 cycles. Also, the IC50 in assay [5] is 0.014 µM.
